Assay results from patent US20240051931A1, “HDAC INHIBITORS” (University of Pittsburgh - Of the Commonwealth System of …, priority 2020, published 2024).

Key:
PanHDAC = PanHDAC activity at fixed concentration (Table 2); format: biochemical; set-up: unit not given here; settings: compound at 1 uM
HDAC 6 = biological target: T1, HDAC 6 (Homo sapiens, UniProt Q9UBN7); experiment: HDAC 6 activity at fixed concentration (Table 2); format: biochemical; set-up: unit not given here; settings: compound at 50 nM
T1 sequence (Q9UBN7 1-1215): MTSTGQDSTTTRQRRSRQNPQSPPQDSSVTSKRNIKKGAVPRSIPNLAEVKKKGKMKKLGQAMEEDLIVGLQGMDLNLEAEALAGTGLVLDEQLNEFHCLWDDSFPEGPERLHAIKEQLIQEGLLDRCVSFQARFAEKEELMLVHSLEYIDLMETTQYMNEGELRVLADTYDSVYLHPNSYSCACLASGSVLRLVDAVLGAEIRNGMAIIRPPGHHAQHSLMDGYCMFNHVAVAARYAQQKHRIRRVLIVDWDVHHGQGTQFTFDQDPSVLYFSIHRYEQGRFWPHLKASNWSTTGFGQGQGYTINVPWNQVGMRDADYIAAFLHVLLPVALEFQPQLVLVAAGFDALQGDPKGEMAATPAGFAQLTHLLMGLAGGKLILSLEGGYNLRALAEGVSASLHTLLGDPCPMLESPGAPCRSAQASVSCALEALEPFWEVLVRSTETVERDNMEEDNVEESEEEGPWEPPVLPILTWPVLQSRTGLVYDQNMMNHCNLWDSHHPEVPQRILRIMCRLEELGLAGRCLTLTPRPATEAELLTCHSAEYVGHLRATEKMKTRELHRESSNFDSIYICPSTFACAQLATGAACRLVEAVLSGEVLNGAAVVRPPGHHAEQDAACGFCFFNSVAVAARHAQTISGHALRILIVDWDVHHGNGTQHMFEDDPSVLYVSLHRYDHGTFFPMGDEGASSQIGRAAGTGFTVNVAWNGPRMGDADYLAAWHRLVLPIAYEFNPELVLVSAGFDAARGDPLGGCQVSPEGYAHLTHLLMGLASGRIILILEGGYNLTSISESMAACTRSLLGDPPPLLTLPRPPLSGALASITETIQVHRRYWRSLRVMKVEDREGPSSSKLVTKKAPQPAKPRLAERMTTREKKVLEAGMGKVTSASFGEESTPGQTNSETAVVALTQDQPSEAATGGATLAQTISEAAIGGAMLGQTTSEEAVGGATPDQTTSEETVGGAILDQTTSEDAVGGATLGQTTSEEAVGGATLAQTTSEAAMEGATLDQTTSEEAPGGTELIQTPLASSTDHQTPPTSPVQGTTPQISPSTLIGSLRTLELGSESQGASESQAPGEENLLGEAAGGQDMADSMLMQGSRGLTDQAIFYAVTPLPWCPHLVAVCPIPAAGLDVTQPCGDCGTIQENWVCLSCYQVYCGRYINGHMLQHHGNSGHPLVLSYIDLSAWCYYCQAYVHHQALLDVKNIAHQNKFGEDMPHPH

Row | melting point | HDAC 6 at 50 nM (HDAC 6) | Compound | PanHDAC at 1 uM (PanHDAC)
1 | 200 to 203 °C |  | Cl.O=C(CN1CCC2(CCc3cc(F)ccc3O2)CC1)NO | 
2 | 182 to 188 °C |  | O=C(Nc1cccc2c1OC(C(=O)NO)CC2)OCc1ccccc1Cl (racemic) [Compound 11L, 2-Chlorobenzyl (2-(hydroxycarbamoyl)chroman-8-yl)carbamate] | 
3 | 156 to 160 °C |  | C[C@@H]1Cc2ccccc2O[C@@H]1C(=O)NO (relative stereo) [Compound 73, (rel)-(2S,3R)—N-Hydroxy-3-methylchromane-2-carboxamide] | 
4 | 102 to 104 °C |  | CO[C@@H]1C[C@@H](C(=O)NO)Oc2ccccc21 (relative stereo) [Compound 85, (rel)-(2S,4R)—N-Hydroxy-4-methoxychromane-2-carboxamide] | 
5 | 173 to 174 °C |  | O=C(NO)[C@@H]1CCc2ccc(-c3ccc(F)c(Cl)c3)cc2O1 [(S)-58d, (S)-7-(3-Chloro-4-fluorophenyl)-N-hydroxychromane-2-carboxamide] | 
6 | 134 to 136 °C |  | O=C(NO)[C@@H]1CCc2ccc(-c3ccc(Cl)c(Cl)c3)cc2O1 [(S)-58e, (S)-7-(3,4-Dichlorophenyl)-N-hydroxychromane-2-carboxamide] | 
7 | 173 to 175 °C |  | O=C(Nc1cccc2c1O[C@@H](C(=O)NO)CC2)OCc1ccccc1Cl [+11L, 2-Chlorobenzyl (R)-(2-(hydroxycarbamoyl)chroman-8-yl)carbamate] | 
8 |  | 64 | O=C(NO)C1CCc2cc(NS(=O)(=O)c3cccc4ccccc34)ccc2O1 (stereo not drawn) [Compound 1-51] | 8
9 |  | 0 | COc1ccc(CNC(=O)Nc2ccc3c(c2)CCC(C(=O)NO)O3)cc1 (stereo not drawn) [Compound 1-52] | 0
10 |  | 25 | O=C(COc1ccccc1Cl)Nc1cccc2c1O[C@H](C(=O)NO)CC2 [Compound 1-53] | 0
11 |  | 39 | O=C(NO)C1CCc2ccc(-c3ccc(Cl)c(Cl)c3)cc2O1 (stereo not drawn) [Compound 1-54] | 0
12 |  | 44 | Cn1ccc2cc(-c3ccc4c(c3)OC(C(=O)NO)CC4)ccc21 (stereo not drawn) [Compound 1-55] | 0
13 |  | 13 | COc1ccc(-c2ccc3c(c2)OC(C(=O)NO)CC3)cc1 (stereo not drawn) [Compound 1-56] | 0
14 |  | 7 | O=C(Nc1ccc2c(c1)CC[C@@H](C(=O)NO)O2)c1ccc(-c2ccccc2)cc1 [Compound 1-57] | 0
15 |  | 31 | O=C(NO)[C@H]1CCc2ccc(OCc3ccc(Cl)cc3)cc2O1 [Compound 1-58] | 0
16 |  | 0 | O=C(NO)[C@@H]1CCc2ccc(OCc3ccc(Cl)cc3)cc2O1 [Compound 1-59] | 0
17 |  | 33 | COc1cccc(COC(=O)Nc2cccc3c2O[C@H](C(=O)NO)CC3)c1 [Compound 1-60] | 0
18 |  | 41 | O=C(NO)[C@@H]1CCc2ccc(-c3ccc(Cl)c(Cl)c3)cc2O1 [Compound 1-61] | 0
19 |  | 32 | O=C(Nc1cccc2c1O[C@H](C(=O)NO)CC2)OCc1ccc(Cl)cc1 [Compound 1-62] | 0

Row | melting point | HDAC 6 at 50 nM (HDAC 6) | Compound | PanHDAC at 1 uM (PanHDAC)
20 |  | 45 | O=C(Nc1cccc2c1O[C@H](C(=O)NO)CC2)OCc1ccc(Cl)c(Cl)c1 [Compound 1-63] | 0
21 |  | 47 | O=C(NO)[C@@H]1CCc2ccc(-c3ccc(F)c(Cl)c3)cc2O1 [Compound 1-64] | 3
22 |  | 17 | O=C(NO)[C@@H]1CCc2ccc(OCc3ccccc3Cl)cc2O1 [Compound 1-65] | 0
23 |  | 31 | COc1ccccc1COC(=O)Nc1cccc2c1O[C@H](C(=O)NO)CC2 [Compound 1-66] | 0
24 | 231 to 232 °C |  | O=C(Nc1ccc(F)cc1)Nc1cccc2c1OC(C(=O)NO)CC2 (stereo not drawn) [Compound 11c, 8-(3-(4-Fluorophenyl)ureido)-N-hydroxychromane-2-carboxamide] | 
25 | 187 to 190 °C |  | O=C(NCc1ccccc1)Nc1cccc2c1OC(C(=O)NO)CC2 (stereo not drawn) [Compound 11e, 8-(3-Benzylureido)-N-hydroxychromane-2-carboxamide] | 
26 | 102 to 104 °C |  | O=C(Nc1cccc2c1OC(C(=O)NO)CC2)OCc1ccc(C(F)(F)F)cc1 (stereo not drawn) [Compound 11f, 4-(Trifluoromethyl)benzyl (2-(hydroxycarbamoyl)chroman-8-yl)carbamate] | 
27 | 71 to 73 °C |  | COc1cccc(COC(=O)Nc2cccc3c2O[C@H](C(=O)NO)CC3)c1 [Compound 11g, 3-methoxybenzyl (S)-(2-(hydroxycarbamoyl)chroman-8-yl)carbamate] | 
28 | 155 to 157 °C |  | O=C(Nc1cccc2c1O[C@H](C(=O)NO)CC2)OCc1ccc(Cl)cc1 [Compound 11h, 4-Chlorobenzyl (S)-(2-(hydroxycarbamoyl)chroman-8-yl)carbamate] | 
29 | 237 to 239 °C |  | O=C(NO)C1CCc2cccc(NS(=O)(=O)c3ccc(F)cc3)c2O1 (stereo not drawn) [Compound 11m, 8-((4-Fluorophenyl)sulfonamido)-N-hydroxychromane-2-carboxamide] | 
30 | 219 to 221 °C |  | O=C(NO)C1CCc2cccc(NS(=O)(=O)c3cccc4ccccc34)c2O1 (stereo not drawn) [Compound 11n, N-Hydroxy-8-(naphthalene-1-sulfonamido)chromane-2-carboxamide] | 
31 | 181 to 183 °C |  | CS(=O)(=O)Nc1cccc2c1OC(C(=O)NO)CC2 (stereo not drawn) [Compound 11o, N-Hydroxy-8-(methylsulfonamido)chromane-2-carboxamide] | 
32 | 235 to 237 °C |  | Cc1ccc(S(=O)(=O)Nc2cccc3c2OC(C(=O)NO)CC3)cc1 (stereo not drawn) [Compound 11p, N-Hydroxy-8-((4-methylphenyl)sulfonamido)chromane-2-carboxamide] | 
33 | 214 to 216 °C |  | O=C(Nc1ccc2c(c1)CCC(C(=O)NO)O2)c1ccc(S(F)(F)(F)(F)F)cc1 (stereo not drawn) [Compound 14c, N-Hydroxy-6-(4-(pentafluoro-λ^6-sulfaneyl)benzamido)chromane-2-carboxamide] | 
34 | 195 to 197 °C |  | O=C(NCc1ccc(Cl)c(C(F)(F)F)c1)Nc1cccc2c1OC(C(=O)NO)CC2 (stereo not drawn) [Compound 14i, 8-(3-(4-Chloro-3-(trifluoromethyl)benzyl)ureido)-N-hydroxychromane-2-carboxamide] | 
35 | 149 to 151 °C |  | COc1ccc(COC(=O)Nc2ccc3c(c2)CCC(C(=O)NO)O3)cc1 (stereo not drawn) [Compound 14j, 4-Methoxybenzyl (2-(hydroxycarbamoyl)chroman-6-yl)carbamate] | 
36 | 188 to 189 °C |  | O=C(Nc1ccc2c(c1)CCC(C(=O)NO)O2)OCc1ccccc1Cl (stereo not drawn) [Compound 14k, 2-Chlorobenzyl (2-(hydroxycarbamoyl)chroman-6-yl)carbamate] | 
37 | 156 to 170 °C |  | O=C(NO)C1CCc2cc(NS(=O)(=O)c3cc(Cl)cc(Cl)c3)ccc2O1 (stereo not drawn) [Compound 14n, 6-((3,5-Dichlorophenyl)sulfonamido)-N-hydroxychromane-2-carboxamide] | 
38 | 200 °C (dec.) |  | CC(C)NC(=O)ONC(=O)C1CCc2cc(NC(=O)c3ccc(-c4ccccc4)cc3)ccc2O1 (stereo not drawn) [Compound 15, 6-([1,1′-Biphenyl]-4-carboxamido)-N-((isopropylcarbamoyl)oxy)chromane-2-carboxamide] | 
